Reference: patent publication US12257260B2, “Pharmaceutical use of anemoside B4 against acute gouty arthritis” (priority 2018, dated 2025)

Assays:
[1] = tested on: rats with acute gouty arthritis induced by MSU; experiment: Example 2: further investigation at reduced dose, sodium urate (MSU)-induced acute gouty arthritis in rats, joint swelling; format: in vivo, SD rats; parameters: key to Swelling degree 2 h after modelling / Swelling degree 4 h after modelling / Swelling degree 6 h after modelling: joint volume after modeling minus joint volume before modeling
Description: Based on Example 1, the dosage of anemoside B4 was reduced, and the effect on alleviating the joint swelling of acute gouty arthritis caused by sodium urate in rats was further investigated. • 1. Experimental materials: same as item “1.” in example 1. • 2. Experimental method • 2.1 Preparation of sodium urate (MSU) crystals and suspension: same as item “2.1” in Example 1. • 2.2. Grouping, administration, and model establishment: • 2.2.1 Grouping: 50 rats were randomly divided into 5 groups according to their body weights, 10 rats for each group: • (1) model group; (2) colchicine group (0.15 mg/kg); (3) B4 subcutaneous injection group (2.5 mg/kg*2); (4) B4 intramuscular injection group (2.5 mg/kg*2); (5) B4 intravenous injection group (2.5 mg/kg*2). • 2.2.2 Administration: The model group was injected with the same volume of normal saline, and each test group (including B4 groups and colchicine group) was administered only on the day of model building. Among them, colchicine group was administered once, while each B4 group was successively administered two times with an interval of 4 h. • 2.2.3 Model establishment and measurement of joint swelling: the model was initially established 1 h after administrating in the drug groups, and the method was same as that in example 1. Before modeling and 2 h, 4 h, 6 h, 8 h, and 12 h after modeling, the volume of the right ankle joint was measured, and the swelling degree was calculated by “joint volume after modeling joint volume before modeling”. • 3.

[2] = tested on: rats with acute gouty arthritis induced by MSU; experiment: Example 1: effect of anemoside B4 on sodium urate (MSU)-induced acute gouty arthritis in rats, joint swelling; format: in vivo, SD rats; parameters: key to Swelling degree 2 h after modelling / Swelling degree 6 h after modelling / Swelling degree 8 h after modelling / Swelling degree 12 h after modelling / Swelling degree 24 h after modelling: swelling = joint volume after modeling − joint volume before modeling
Description: 2.1 Preparation of sodium urate (MSU) crystals and suspension: 5 ml of 1 mol/L NaOH solution and 800 mg sodium urate were added to 155 ml depyrogenated sterile water for injection and heated to boiling. Sodium urate was completely dissolved and then cooled down naturally under stirring. After that, 1 mol/L HCl was dropped to pH 7.0, then the solution became milky white, and was immediately centrifuged at 3000 r/min for 2 min. The crystals were collected, dried in an oven at 60° C., placed in an EP tube, and stored at 4° C. Prior to use, MSU crystals were autoclaved at 121° C. for 30 min, and dispersed in PBS to make the required concentration, i.e. to obtain a suspension of sodium urate (MSU). The film preparation of the suspension was performed, and the long fusiform crystals can be seen under the optical microscope.
2.2 Grouping, administration, and model establishment: 60 rats were randomly divided into 6 groups according to their body weights, 10 rats for each group: (1) model group; (2) colchicine group (0.3 mg/kg); (3) B4 subcutaneous injection group (5 mg/kg*2); (4) B4 intravenous injection group (5 mg/kg*2); (5) B4 intramuscular injection high-dose group (5 mg/kg*2); (6) B4 intramuscular injection low-dose group (2.5 mg/kg*2); normal group (5 rats). The normal group and the model group were injected with the same volume of normal saline, and each of B4 groups was given corresponding drugs by the corresponding route of administration for 3 days, twice a day, with an interval of 4 hours between two times.
Modeling method: on the day of modeling, the model was initially established 1 h after administrating in the drug groups. Among them: • (1) Model group: each rat was injected with 40 mg/mL MSU suspension to the back of the right ankle joint at a dose of 0.2 mL/rat; • (2) Colchicine group: the colchicine group was administered once on the day of modeling, and 1 h after administration, each rat was injected with 40 mg/mL MSU suspension on the dorsal side of the right ankle joint at a dose of 0.2 mL/mouse; • (3)-(6) B4 groups: 1 h after the last administration, each rat was injected with 40 mg/mL MSU suspension on the dorsal side of the right ankle joint at 0.2 mL/mouse, and 3 h after modeling, each test group was further administrated once.
2.3 Measurement of joint swelling: before modeling and 2 h, 4 h, 6 h, 8 h, 12 h, 24 h after modeling, the volume of the right ankle joint was measured, and the swelling degree was calculated by “joint volume after modeling-joint volume before modeling”.

[3] = B4 intramuscular injection group, 2.5mg/kg * twice
[4] = B4 intravenous injection group, 2.5mg/kg * twice
[5] = B4 subcutaneous injection group, 2.5 mg/kg * twice
[6] = B4 intramuscular high-dose group, 5 mg/kg * 2
[7] = B4 intramuscular low-dose group, 2.5 mg/kg * 2
[8] = B4 intravenous injection group, 5 mg/kg * 2
[9] = B4 subcutaneous injection group, 5 mg/kg * 2

C=C(C)C1CCC2(C(=O)O[C@@H]3O[C@H](CO[C@@H]4O[C@H](CO)[C@@H](O[C@@H]5O[C@@H](C)[C@H](O)[C@@H](O)[C@H]5O)[C@H](O)[C@H]4O)[C@@H](O)[C@H](O)[C@H]3O)CC[C@]3(C)[C@H](CC[C@@H]4[C@@]5(C)CC[C@H](OC6OC[C@H](O)[C@H](O)[C@H]6O[C@@H]6O[C@@H](C)[C@H](O)[C@@H](O)[C@H]6O)[C@@](C)(CO)[C@@H]5CC[C@]43C)[C@@H]12 (stereo partly shown) [B4, anemoside B4]
alleviating the joint swelling of acute gouty arthritis (conclusion) ([1]; B4 injection, Example 2): significant effect | Swelling degree 2 h after modelling [1, 3]: 0.099 ± 0.08 | Swelling degree 4 h after modelling [1, 3]: 0.130 ± 0.07 | Swelling degree 6 h after modelling [1, 3]: 0.090 ± 0.07 | Swelling degree 8 h after modelling [1, 3]: 0.134 ± 0.10^Δ | Swelling degree 12 h after modelling [1, 3]: 0.097 ± 0.17^Δ | swelling degree of the joint compared with the model group ([1]; B4 intramuscular injection group, 8-12 h after modelling): obviously reduced and significantly different | joint swelling degree, rank among groups ([1]; B4 intramuscular injection group, 12 h after modeling): smallest in all groups | Swelling degree 2 h after modelling [1, 4]: 0.113 ± 0.09 | Swelling degree 4 h after modelling [1, 4]: 0.099 ± 0.10 | Swelling degree 6 h after modelling [1, 4]: 0.108 ± 0.18 | Swelling degree 8 h after modelling [1, 4]: 0.113 ± 0.24^Δ | Swelling degree 12 h after modelling [1, 4]: 0.124 ± 0.27^Δ | swelling degree of the joint compared with the model group ([1]; B4 intravenous injection group, 8-12 h after modelling): obviously reduced and significantly different | Swelling degree 4 h after modelling [1, 5]: 0.008 ± 0.11 | Swelling degree 6 h after modelling [1, 5]: 0.040 ± 0.09^Δ | Swelling degree 8 h after modelling [1, 5]: 0.103 ± 0.18^Δ | Swelling degree 12 h after modelling [1, 5]: 0.103 ± 0.16^Δ | Swelling degree 2 h after modelling ([1]; B4 subcutaneous injection group, 2.5 mg/kg * twice, day of modelling only): 0.067 ± 0.10 | joint swelling degree, rank among groups ([1]; B4 subcutaneous injection group, 2-8 h after modeling): smallest in all groups | swelling degree of the joint compared with the model group ([1]; B4 subcutaneous injection group, 6-12 h after modelling): obviously reduced and significantly different | effect on reducing the joint swelling of acute gouty arthritis caused by sodium urate, compared with colchicine ([1]; administration routes and dosages of Example 2): equivalent to that of colchicine | Swelling degree 2 h after modelling [2, 6]: 0.15 ± 0.10 | Swelling degree 4 h after modelling [2, 6]: 0.15 ± 0.09^Δ | Swelling degree 6 h after modelling [2, 6]: 0.19 ± 0.11 | Swelling degree 8 h after modelling [2, 6]: 0.28 ± 0.11 | Swelling degree 12 h after modelling [2, 6]: 0.33 ± 0.16 | Swelling degree 24 h after modelling [2, 6]: 0.35 ± 0.23 | swelling degree of the joints compared with the model group ([2]; B4 intramuscular injection group, 2-4 h after modelling): significantly reduced | Swelling degree 2 h after modelling [2, 7]: 0.12 ± 0.07^Δ | Swelling degree 4 h after modelling [2, 7]: 0.11 ± 0.11^Δ | Swelling degree 6 h after modelling [2, 7]: 0.20 ± 0.11 | Swelling degree 8 h after modelling [2, 7]: 0.32 ± 0.18 | Swelling degree 12 h after modelling [2, 7]: 0.38 ± 0.23 | Swelling degree 24 h after modelling [2, 7]: 0.55 ± 0.35 | Swelling degree 4 h after modelling [2, 8]: 0.08 ± 0.18^Δ | Swelling degree 6 h after modelling [2, 8]: 0.13 ± 0.14^Δ | Swelling degree 8 h after modelling [2, 8]: 0.23 ± 0.21 | Swelling degree 12 h after modelling [2, 8]: 0.22 ± 0.19 | Swelling degree 24 h after modelling [2, 8]: 0.28 ± 0.21 | Swelling degree 2 h after modelling ([2]; B4 intravenous injection group, 5 mg/kg * 2, 3 days, right ankle joint volume after minus before modelling): 0.17 ± 0.14 | swelling degree of the joints compared with the model group ([2]; B4 intravenous injection group, 4-6 h after modelling): significantly reduced | Swelling degree 2 h after modelling [2, 9]: 0.10 ± 0.08^Δ | Swelling degree 4 h after modelling [2, 9]: 0.07 ± 0.08^ΔΔ | Swelling degree 6 h after modelling [2, 9]: 0.13 ± 0.09^Δ | Swelling degree 8 h after modelling [2, 9]: 0.21 ± 0.13 | Swelling degree 12 h after modelling [2, 9]: 0.27 ± 0.15 | Swelling degree 24 h after modelling [2, 9]: 0.28 ± 0.16 | swelling degree of the joints compared with the model group ([2]; B4 subcutaneous injection group, 2-6 h after modelling): significantly reduced | effect on reducing the acute joint swelling caused by sodium urate (MSU) crystals, compared with colchicine ([2]; administration routes and dosages of Example 1): equivalent to that of colchicine | joint swelling of acute gouty arthritis (conclusion) ([2]; subcutaneous, intramuscular and intravenous injection): significantly alleviate

COc1cc2c(c(OC)c1OC)-c1ccc(OC)c(=O)cc1[C@@H](NC(C)=O)CC2 [Colchicine, colchicine, reference compound]
Swelling degree 4 h after modelling ([1]; Colchicine group, 0.15 mg/kg): 0.082 ± 0.11 | Swelling degree 6 h after modelling ([1]; Colchicine group, 0.15 mg/kg): 0.056 ± 0.11^Δ | Swelling degree 8 h after modelling ([1]; Colchicine group, 0.15 mg/kg): 0.135 ± 0.13^Δ | Swelling degree 12 h after modelling ([1]; Colchicine group, 0.15 mg/kg): 0.128 ± 0.13^Δ | Swelling degree 2 h after modelling ([1]; Colchicine group, 0.15 mg/kg, once on the day of model building): 0.155 ± 0.07 | swelling degree of the joint compared with the model group ([1]; colchicine group, 6-12 h after modelling): obviously reduced and significantly different | Swelling degree 4 h after modelling ([2]; Colchicine group, 0.3 mg/kg): 0.13 ± 0.11^Δ | Swelling degree 6 h after modelling ([2]; Colchicine group, 0.3 mg/kg): 0.19 ± 0.14 | Swelling degree 8 h after modelling ([2]; Colchicine group, 0.3 mg/kg): 0.25 ± 0.20 | Swelling degree 12 h after modelling ([2]; Colchicine group, 0.3 mg/kg): 0.35 ± 0.23 | Swelling degree 24 h after modelling ([2]; Colchicine group, 0.3 mg/kg): 0.33 ± 0.11 | Swelling degree 2 h after modelling ([2]; Colchicine group, 0.3 mg/kg, once on the day of modeling): 0.14 ± 0.08 | swelling degree of the joints compared with the model group ([2]; colchicine group, 4 h after modelling): significantly reduced
